Experimental data reported in publication PMC7129073 (Clinical Microbiology and Infection, 2015).
In brackets after ≈: the same amount, converted by molar mass.

What was measured:
[1] = tested on: viridans group streptococci (VGS); experiment: MIC; format: cell-based
[2] = tested on: Streptococcus pneumoniae (SPN); experiment: MIC; format: cell-based; conditions: 8378 isolates
[3] = tested on: Haemophilus influenzae (HI); experiment: MIC; format: cell-based; conditions: 7489 isolates
[4] = tested on: Moraxella catarrhalis (MC); experiment: MIC; format: cell-based; conditions: 2497 isolates
[5] = tested on: Streptococcus pyogenes (SPY); experiment: MIC; format: cell-based; conditions: 2522 isolates
S. pyogenes = experiment: PROTEKT Italy, NCCLS microdilution; format: cell-based, Streptococcus pyogenes; conditions: year 1: 2002
S. pneumoniae [6] = experiment: PROTEKT Italy, NCCLS microdilution; format: cell-based, Streptococcus pneumoniae
[7] = tested on: P. aeruginosa strains from CF sputa; experiment: O-serotyping; format: cell-based, Pseudomonas aeruginosa; conditions: exposure to 1/2–1/16 MIC (ceftazidime) or 1/2–1/8 MIC (ciprofloxacin)
Escherichia coli = experiment: Vitek 2 susceptibility, urine isolates of children; format: cell-based
[8] = tested on: S. typhimurium (strain SL1344); experiment: Cell envelope proteome; format: cell-based, Salmonella typhimurium; conditions: 31.2 ng/ml; control 296 ± 77; mean + 1 SD
K. pneumoniae [9] = experiment: MIC; format: cell-based, Klebsiella pneumoniae
Shigella spp. = experiment: Disk diffusion, stool isolates Tehran; format: cell-based; conditions: 96 isolates
H. influenzae = format: cell-based, Haemophilus influenzae
S. pneumoniae (SPN) = experiment: NCCLS broth microdilution, fluoroquinolones 1999–2004; format: cell-based, Streptococcus pneumoniae; conditions: Streptococcus pneumoniae, read-out: MIC90 during the six years, 1999–2004
[10] = tested on: Pseudomonas aeruginosa (PA); experiment: MIC; format: cell-based
qnrA = qnrA transcription in E. coli transconjugants after quinolone induction; format: cell-based, Escherichia coli; conditions: 0.4 × MIC
Enterobacteriaceae = experiment: SMART 2003 Europe, microdilution; format: cell-based; conditions: 1948 isolates
E. coli [11] = experiment: SMART 2003 Europe, microdilution; format: cell-based, Escherichia coli; conditions: 1106 isolates
[12] = tested on: S. enterica serotype Typhimurium; experiment: Susceptibility testing of CipR strains from children and exotic pets; format: cell-based; conditions: Salmonella enterica
S. pneumoniae [13] = experiment: Broth microdilution; format: cell-based, Streptococcus pneumoniae; conditions: 275 isolates
nontyphoidal Salmonella = experiment: Agar dilution, isolates from chickens 1998–2004; format: cell-based, Salmonella spp.; conditions: Salmonella
S. aureus [14] = experiment: NCCLS broth microdilution, SSTI isolates; format: cell-based; conditions: Staphylococcus aureus
P. stuartii [15] = experiment: E-test MIC and mutant prevention concentration, qnr transconjugand and mutants; conditions: Providencia stuartii
[16] = tested on: Pseudomonas aeruginosa (PSA); experiment: Vitek 2 susceptibility, urine isolates of children; format: cell-based; conditions: both departments
P. aeruginosa = format: cell-based, Pseudomonas aeruginosa
N. farcinica strain = experiment: E-test on Mueller-Hinton agar; format: cell-based; conditions: Nocardia farcinica
Nocardia spp. [17] = experiment: E-test on Mueller Hinton agar, 81 clinical isolates; format: cell-based; conditions: Nocardia
Acinetobacter = experiment: Disk diffusion; format: cell-based; conditions: 37 isolates selected as resistant to beta-lactams
Nocardia spp. [18] = experiment: Time-kill at peak-serum concentrations, seven strains; format: cell-based; conditions: of seven strains; 24, 72 h
F. necrophorum = experiment: E-test, 13 clinical isolates; format: cell-based, Fusobacterium necrophorum; conditions: for MIC50 / MIC90: Fusobacterium necrophorum
[19] = tested on: inducible Enterobacteriaceae; experiment: SMART 2003, intraabdominal isolates; format: cell-based
Klebsiella = experiment: SMART 2003 Europe, microdilution; format: cell-based, Klebsiella spp.; conditions: 341 isolates
P.aeruginosa = experiment: Italian survey of severe infections 2003, MIC; format: cell-based, Pseudomonas aeruginosa
A. baumannii = experiment: Italian survey of severe infections 2003, MIC; format: cell-based, Acinetobacter baumannii
B.cepacia = experiment: Italian survey of severe infections 2003, MIC; format: cell-based, Burkholderia cepacia
S. pneumoniae [20] = experiment: MIC of invasive strains, Saint George Hospital 2001–2004; format: cell-based, Streptococcus pneumoniae
E. coli [21] = experiment: E-test susceptibility; format: cell-based, Escherichia coli
K. pneumoniae [22] = experiment: E-test susceptibility; format: cell-based, Klebsiella pneumoniae
K. oxytoca = experiment: E-test susceptibility; format: cell-based, Klebsiella oxytoca
Enterobacter spp = experiment: E-test susceptibility; format: cell-based
Gram-negative rods = experiment: Microscan MIC, blood culture isolates; format: cell-based
PSA = conditions: background statement, no reference given; cited from earlier work
S. pneumoniae [23] = format: cell-based, Streptococcus pneumoniae
Pseudomonas spp. = experiment: MIC; format: cell-based
S. marcescens = experiment: Italian survey of severe infections 2003, MIC; format: cell-based, Serratia marcescens
M. morganii = experiment: Italian survey of severe infections 2003, MIC; format: cell-based, Morganella morganii
P. stuartii [24] = experiment: Italian survey of severe infections 2003, MIC; format: cell-based, Providencia stuartii
Escherichia coli (ECO) = experiment: Broth microdilution; format: cell-based; conditions: 2001
S. aureus [25] = experiment: Methicillin resistance, PBSCT patients; format: cell-based, Staphylococcus aureus
CoNS = experiment: Methicillin resistance, PBSCT patients; format: cell-based, Coagulase-negative Staphylococcus
Staphylococcus aureus [26] = experiment: EARSS Ireland, invasive isolates; format: cell-based; conditions: Jan'99–Jun'04, 4786 isolates
S. aureus [27] = experiment: Italian survey of severe infections 2003, MIC; format: cell-based, Staphylococcus aureus
S. epidermidis = experiment: Italian survey of severe infections 2003, MIC; format: cell-based, Staphylococcus epidermidis
Staphylococcus aureus [28] = experiment: Broth microdilution and E-test, diabetic foot ulcers; format: cell-based; conditions: 81 isolates
[29] = tested on: Staphylococcus epidermidis; experiment: as above; format: cell-based; conditions: 53 isolates
[30] = ICU, SRGA breakpoints, tigecycline tentative S ≤2 μg/ml

CC[C@H]1OC(=O)[C@H](C)C(=O)[C@H](C)[C@@H](O[C@@H]2O[C@H](C)C[C@H](N(C)C)[C@H]2O)[C@](C)(OC)C[C@@H](C)C(=O)[C@H](C)[C@H]2N(CCCCn3cnc(-c4cccnc4)c3)C(=O)O[C@]12C [telithromycin]
MIC50 [1]: 0.007 µg/mL (≈ 0.00862 µM) | MIC90 [1]: 2 µg/mL (≈ 2.46 µM) | MIC90 [2]: 0.008 ig/ml | MIC90 [3]: 4 ig/ml | MIC90 [4]: 0.12 ig/ml | MIC90 [5]: 0.008 ig/ml | Susceptibility (S. pyogenes): 92.7% | susceptible (S. pneumoniae [6]; year 1: 2002): 99.7% | susceptible (S. pneumoniae [6]; year 2: 2003): 99.1%

O=C(O)c1cn(C2CC2)c2cc(N3CCNCC3)c(F)cc2c1=O [ciprofloxacin]
change of agglutination type of nine monoagglutinable strains [7]: five out of nine strains | susceptibility rate (Escherichia coli; paediatric surgical unit (PSU)): 96% | susceptibility rate (Escherichia coli; paediatric units (PU)): 100% | number of proteins detected in 2D gels [8]: 153 ± 36 | susceptibility category (K. pneumoniae [9]; BSAC): resistant | sensitive (Shigella spp.): 100% | intermediate susceptible (H. influenzae): 2.4% | MIC90 (S. pneumoniae (SPN)): 2 µg/mL (≈ 6.04 µM) | isolates with MPC ≤ 2 μg/ml [10]: 79% | MPC range ([10]; 10 billion organisms on agar): 1 to 4 µg/mL | MIC range ([10]; patients P1 and P2): 0.031 to 1 µg/mL | increase of qnrA transcription over baseline (qnrA; transconjugant from 1960): 2.6 times | increase of qnrA transcription over baseline (qnrA; transconjugant from N5): 5.1 times | increase of qnrA transcription over baseline (qnrA; transconjugant from UAB1): 4.3 times | per cent susceptible (Enterobacteriaceae): 84% | per cent susceptible (E. coli [11]): 80% | MIC [12]: ≥ 16 µg/mL | Susceptibility (S. pneumoniae [13]): 94.5% | MIC90 (nontyphoidal Salmonella): ~0.25 µg/mL (≈ 0.754 µM) | MIC50 (S. aureus [14]): 0.25 µg/mL (≈ 0.754 µM) | MIC (P. stuartii [15]; ATCC29914, P. stuartii ATCC 29914 RifR): 0.03 µg/mL (≈ 0.0905 µM) | MIC (P. stuartii [15]; ATCC29914, mutants of ATCC 29914 RifR, SCV, median): 3 µg/mL (≈ 9.05 µM) | MIC (P. stuartii [15]; TCPs 123 (qnr-positive transconjugand)): 0.5 µg/mL (≈ 1.51 µM) | MIC (P. stuartii [15]; mutants of TCPs 123, SCV, median): > 32 µg/mL | MIC (P. stuartii [15]; mutants of TCPs 123, normal colony size, median): 6 µg/mL (≈ 18.1 µM)

C[C@@H](O)[C@H]1C(=O)N2C(C(=O)O)=C(SCCN=CN)C[C@H]12 [imipenem]
Susceptible isolates [16]: 74-100% | MIC (K. pneumoniae [9]; Klebsiella pneumoniae): 1 to 8 µg/mL (≈ 3.34 to 26.7 µM) | MIC50 [1]: 0.015 µg/mL (≈ 0.0501 µM) | MIC90 [1]: 0.12 µg/mL (≈ 0.401 µM) | resistant (H. influenzae): 0% | resistant (P. aeruginosa): 42% | MIC (N. farcinica strain): > 32 µg/mL | MIC50 (Nocardia spp. [17]): 0.5 µg/mL (≈ 1.67 µM) | MIC90 (Nocardia spp. [17]): 2 µg/mL (≈ 6.68 µM) | resistant isolates (Acinetobacter): 0.0% | strains with bactericidal activity (≥3 log10 cfu/ml decrease) (Nocardia spp. [18]): 4 strains | MIC range (F. necrophorum): 0.004 to 32 µg/mL | MIC50 (F. necrophorum): 1.5 µg/mL (≈ 5.01 µM) | MIC90 (F. necrophorum): > 32 µg/mL | % susceptible ([19]; A/P (N = 200)): 99% | % susceptible ([19]; EU (N = 354)): 98% | % susceptible ([19]; LA (N=113)): 98% | % susceptible ([19]; NA (N = 163)): 98% | per cent susceptible (Enterobacteriaceae): >99% | per cent susceptible (E. coli [11]): 100% | per cent susceptible (Klebsiella): 99% | resistance (P.aeruginosa): 11.9% | resistance (A. baumannii): 22.5% | resistance (B.cepacia): 71.4% | % S (S. pneumoniae [20]): 100% | %R (S. pneumoniae [20]): 0% | Susceptible isolates (E. coli [21]; [30]): 99% | Susceptible isolates (E. coli [21]; non ICU): 100% | Susceptible isolates (K. pneumoniae [22]; ICU): 100% | Susceptible isolates (K. pneumoniae [22]; non ICU): 99% | Susceptible isolates (K. oxytoca; ICU): 100/100% | Susceptible isolates (K. oxytoca; non ICU): 100/100% | Susceptible isolates (Enterobacter spp; ICU): 96% | Susceptible isolates (Enterobacter spp; non ICU): 98% | susceptible strains (n/N) (Gram-negative rods): 15/16 | MIC50 (PSA): 1 µg/mL (≈ 3.34 µM)

CO/N=C(\C(=O)N[C@@H]1C(=O)N2C(C(=O)O)=C(COC(C)=O)CS[C@H]12)c1csc(N)n1 [cefotaxime]
sensitive (Shigella spp.): 100% | resistant (S. pneumoniae [23]): 0% | resistant (H. influenzae): 0% | resistant isolates (Acinetobacter): 75.7% | MIC range (F. necrophorum): 0.016 to 256 µg/mL | MIC50 (F. necrophorum): 0.016 µg/mL (≈ 0.0351 µM) | MIC90 (F. necrophorum): 0.064 µg/mL (≈ 0.141 µM) | resistant strains (Pseudomonas spp.): 90% | resistance (S. marcescens): 13.2% | resistance (M. morganii): 14,3% | resistance (P. stuartii [24]): 84.5% | % S (S. pneumoniae [20]): 95.2% | %R (S. pneumoniae [20]): 4.8% | susceptible (Escherichia coli (ECO); NAL-resistant isolates): 89.9% | susceptible (Escherichia coli (ECO); NAL-susceptible isolates): 99.2% | MIC50 (nontyphoidal Salmonella; read-out: MIC 50/90): 0.12 to 0.25 µg/mL (≈ 0.263 to 0.549 µM) | Susceptible isolates (E. coli [21]; [30]): 98% | Susceptible isolates (E. coli [21]; non ICU): 99% | Susceptible isolates (K. pneumoniae [22]; ICU): 98% | Susceptible isolates (K. pneumoniae [22]; non ICU): 100%

COc1cccc(OC)c1C(=O)N[C@@H]1C(=O)N2[C@@H]1SC(C)(C)[C@@H]2C(=O)O [methicillin]
resistance (S. aureus [25]): 47.4% | resistance (CoNS): 86.5% | resistant isolates (Staphylococcus aureus [26]): 41.4% | resistance (S. aureus [27]): 37.1% | resistance (S. epidermidis): 86.7% | resistant isolates (Staphylococcus aureus [28]): 27.2% | resistant isolates [29]: 35.8%
